Broadly, the inhibition is the drop in the measured response relative to a control, in per cent.

SMILES strings stand for the structures.

The record followed here is patent US7109193B2, “Tricyclic diazepines tocolytic oxytocin receptor antagonists” (Wyeth, priority 2001, dated 2006).

For this experiment, the target named is T1, human vasopressin V2 receptor subtype (Homo sapiens, UniProt P30518).
T1 construct: host or cells: CHO cells (pZeoSV vector)
The experiment is described as follows: Vasopressin binding in Chinese Hamster Ovary cell membranes expressing human vasopressin V2 subtype receptors. Particulars: 100 nM, CHO cell membranes, [3H]arginine vasopressin, values without parentheses. Put shortly:
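Radioligand displacement on membranes from CHO cells stably expressing human V2 receptor, 25 to 50 μg protein/well, in 50 mM Tris-HCl pH 7.4 with MgCl2, BSA and protease inhibitors. [^3H]arginine vasopressin (8 nM working solution) incubated 60 min at room temperature; bound label measured by filtration and scintillation counting.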

T1 sequence (P30518 whole entry): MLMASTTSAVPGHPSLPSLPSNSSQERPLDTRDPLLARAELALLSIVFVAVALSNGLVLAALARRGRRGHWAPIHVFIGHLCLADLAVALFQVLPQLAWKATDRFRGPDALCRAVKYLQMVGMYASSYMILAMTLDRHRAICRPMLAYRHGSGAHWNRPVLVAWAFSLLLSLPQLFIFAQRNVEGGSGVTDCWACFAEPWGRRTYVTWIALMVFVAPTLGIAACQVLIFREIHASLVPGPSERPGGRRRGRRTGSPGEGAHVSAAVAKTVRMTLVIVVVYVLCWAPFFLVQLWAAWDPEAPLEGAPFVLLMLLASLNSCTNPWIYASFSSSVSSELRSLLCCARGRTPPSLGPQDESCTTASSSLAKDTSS

Consider `COc1ccccc1-c1ccc(C(=O)N2Cc3ccc(C(=O)N4CCC(N5CCCC5)CC4)n3Cc3ccccc32)cc1OC` [Example 145, {10-[(2,2′-Dimethoxy[1,1′-biphenyl]4-yl)carbonyl]-10,11-dihydro-5H-pyrrolo[2,1-c][1,4]benzodiazepin-3-yl}[4-(1-pyrrolidinyl)-l-piperidinyl]methanone], for which the “V2 % inhibition @ 100 nM” value is on record as −5%.

For `Cc1cccc(N2CCN(C(=O)c3ccc4n3Cc3ccccc3N(C(=O)c3ccc(-c5ccccc5C(F)(F)F)c(C)c3)C4)CC2C)c1` (stereo not drawn) [Example 5, [3-Methyl-4-(3-methyl-phenyl)-piperazin-1-yl]-[10-(2-methyl-2′-trifluoromethyl-[1,1′-biphenyl]-4-yl)carbonyl]-10,11-dihydro-5H-pyrrolo[2,1-c][1,4]benzodiazepin-3-yl-methanone], the “V2 % inhibition @ 100 nM” value came to 3%.

Take `Cc1ccccc1-c1ccc(C(=O)N2Cc3ccc(C(=O)NCCN4CCCCC4)n3Cc3ccccc32)cc1C` [Example 150, 10-[(2,2′-Dimethyl[1,1′-biphenyl]-4-yl)carbonyl]-N-[2-(1-piperidinyl)ethyl]-10,11-dihydro-5H-pyrrolo[2,1-c][1,4]benzodiazepine-3-carboxamide]: the inhibition at 0.1 µM amounted to 18%.

In the case of `COc1cc(C(=O)N2Cc3ccc(C(=O)N4CCC(N5CCCCC5)CC4)n3Cc3ccccc32)ccc1-c1ccccc1C` [Example 116, {10-[(2-Methoxy-2′-methyl[1,1′-biphenyl]-4-yl)carbonyl]-10,11-dihydro-5H-pyrrolo[2,1-c][1,4]benzodiazepin-3-yl}[4-(1-piperidinyl)-1-piperidinyl]methanone], the inhibition at 0.1 µM was determined as 22%.

Take `Cc1cc(C(=O)N2Cc3ccc(C(=O)NCCCN(C)C)n3Cc3ccccc32)ccc1-c1ccccc1C(F)(F)F` [Example 84, N-[3-(Dimethylamino)propyl]-10-{[2-methyl-2′-(trifluoromethyl)[1,1′-biphenyl]-4-yl]carbonyl}-10,11-dihydro-5H-pyrrolo[2,1-c][1 .4]benzodiazepine-3-carboxamide]: the “V2 % inhibition @ 100 nM” value was found to be 11%.

Regarding `COc1cccc(-c2cc(OC)c(C(=O)N3Cc4ccc(C(=O)N5CCN(CCN6CCOCC6)CC5)n4Cc4ccccc43)cc2Cl)c1` [Example 212, {10-[(6-Chloro-3,3′-dimethoxy[1,1′-biphenyl]-4-yl)carbonyl]-10,11-dihydro-5H-pyrrolo[2,1-c][1,4]benzodiazepin-3-yl}{4-[2-(4-morpholinyl)ethyl]-1-piperazinyi}methanone], the “V2 % inhibition @ 100 nM” value is 43%.

Turning to `COc1cc(C(=O)N2Cc3ccc(C(=O)NCCCn4ccnc4)n3Cc3ccccc32)ccc1-c1cccc2ccccc12` [Example 131, N-[3-(1H-Imidazol-1-yl)propyl]-10-[3-methoxy-4-(1-naphthyl)benzoyl]-10,11-dihydro-5H-pyrrolo[2,1-c][1,4]benzodiazepine-3-carboxamide], the inhibition at 0.1 µM came out at 13%.

`COc1ccccc1-c1ccc(C(=O)N2Cc3ccc(C(=O)NCCN4CCCCC4)n3Cc3ccccc32)cc1C` [Example 149, 10-[(2′-Methoxy-2-methyl[1,1′-biphenyl]-4-yl)carbonyl]-N-[2-(1-piperidinyl)ethyl]-10,11-dihydro-5H-pyrrolo[2,1-c][1,4]benzodiazepine-3-carboxamide]: the inhibition at 0.1 µM was found to be 20%.

With `COc1cc(C(=O)N2Cc3ccc(C(=O)N4CCC(N5CCCC5)CC4)n3Cc3ccccc32)ccc1-c1ccccc1C` [Example 142, {10-[(2-Methoxy-2′-methyl[1,1′-biphenyl]-4-yl)carbonyl]-10,11-dihydro-5H-pyrrolo[2,1-c][1,4]benzodiazepin-3-yl}[4-(1-pyrrolidinyl)-1-piperidinyl]methanone], the inhibition at 0.1 µM is -5%.

Consider `COc1ccccc1-c1ccc(C(=O)N2Cc3ccc(C(=O)N4CCC(N5CCCC5)CC4)n3Cc3ccccc32)cc1` [Example 140, {10-[(2′-Methoxy[1,1′-biphenyl]-4-yl)carbonyl]-10,11-dihydro-5H-pyrrolo[2,1-c][1,4]benzodiazepin-3-yl}[4-(1-pyrrolidinyl)-1-piperidinyl]methanone], for which the inhibition at 0.1 µM stood at 29%.

As to `CN(C)CCCN(C)C(=O)c1ccc2n1Cc1ccccc1N(C(=O)c1ccc(-c3cccc4ccccc34)cc1Cl)C2` [Example 109, 10-[2-Chloro-4-(1-naphthyl)benzoyl]-N-[3-(dimethylamino)propyl]-N-methyl-10,11-dihydro-5H-pyrrolo[2,1-c][1,4]benzodiazepine-3-carboxamide], the inhibition at 0.1 µM came to 14%.

In the case of `Cc1cc(C(=O)N2Cc3ccc(C(=O)N4CCC(N5CCCCC5)CC4)n3Cc3ccccc32)ccc1-c1ccccc1C(F)(F)F` [Example 122, {10-[(2-Methyl-2′-(trifluoromethyl) -[1,1′-biphenyl]-4-yl)carbonyl]-10,11-dihydro-5H -pyrrolo[2,1-c][1,4]benzodiazepin-3-yl}[4-(1-piperidinyl)-1-piperidinyl]methanone], the inhibition at 0.1 µM is 8%.

On to `COc1ccccc1-c1ccc(C(=O)N2Cc3ccc(C(=O)N(C)CCCN(C)C)n3Cc3ccccc32)cc1OC` [Example 107, 10-[(2,2′-Dimethoxy[1,1′-biphenyl]-4-yl)carbonyl]-N-[3-(dimethylamino)propyl]-N-methyl-10,11-dihydro-5H-pyrrolo[2,1-c][1,4]benzodiazepine-3-carboxamide], for which the inhibition at 0.1 µM came to 19%.

`COc1ccccc1-c1ccc(C(=O)N2Cc3ccc(C(=O)N4CCC[C@H]4CN4CCCC4)n3Cc3ccccc32)cc1` [Example 265, {10-[(2′-Methoxy[1,1′-biphenyl]-4-yl)carbonyl]-10,11-dihydro-5H-pyrrolo[2,1-c][1,4]benzodiazepin-3-yl}[(2S)-2-(1-pyrrolidinylmethyl)pyrrolidinyl]methanone]: the “V2 % inhibition @ 100 nM” value is 10%.

For `COc1cc(C(=O)N2Cc3ccc(C(=O)N4CCC[C@H]4CN4CCCC4)n3Cc3ccccc32)ccc1-c1cccc2ccccc12` [Example 262, {10-[3-Methoxy-4-(1-naphthyl)benzoyl]-10,11-dihydro-5H-pyrrolo[2,1-c][1,4]benzodiazepin-3-yl}[(2S)-2-(1-pyrrolidinylmethyl)pyrrolidinyl]methanone], the “V2 % inhibition @ 100 nM” value is listed as 4%.

As for `COc1cc(-c2ccccc2C)c(Cl)cc1C(=O)N1Cc2ccc(C(=O)NCCCn3ccnc3)n2Cc2ccccc21` [Example 129, 10-[(6-Chloro-3-methoxy-2′-methyl[1,1′-biphenyl]-4-yl)carbonyl]-N-[3-(1H-imidazol-1-yl)propyl]-10,11-dihydro-5H-pyrrolo[2,1-c][1,4]benzodiazepine-3-carboxamide], the inhibition at 0.1 µM worked out at 5%.

`Cc1ccccc1-c1ccc(C(=O)N2Cc3ccc(C(=O)NCCCn4ccnc4)n3Cc3ccccc32)cc1` [Example 127, N-[3-(1H-Imidazol-1-yl)propyl]-10-[(2′-methyl[1,1′-biphenyl]-4-yl)carbonyl]-10,11-dihydro-5H-pyrrolo[2,1-c][1,4]benzodiazepine-3-carboxamide]: the inhibition at 0.1 µM worked out at 3%.

In the case of `COc1cc(C(=O)N2Cc3ccc(C(=O)N4CCC[C@H]4CN4CCCC4)n3Cc3ccccc32)ccc1-c1ccccc1Cl` [Example 33, {[10-(2-Methoxy)-2′-chloro-[1,1′-biphenyl]-4-yl]carbonyl}-[(2S)-[(2-pyrrolidin-1-yl)methyl]pyrrolidin-1-yl]-10,11-dihydro-5H-pyrrolo[2,1-c][1,4]benzodiazepin-3-yl-methanone], the “V2 % inhibition @ 100 nM” value worked out at 11%.

Turning to `Cc1ccccc1-c1ccc(C(=O)N2Cc3ccc(C(=O)N4CC[C@@H](N(C)C)C4)n3Cc3ccccc32)cc1C` [Example 274, [(3R)-3-(Dimethylamino)pyrrolidinyl]{10-[(2,2′-dimethyl[1,1′-biphenyl]-4-yl)carbonyl]-10,11-dihydro-5H-pyrrolo[2,1-c][1,4]benzodiazepin-3-yl}methanone], the “V2 % inhibition @ 100 nM” value amounted to 32%.

Take `CN(C)[C@@H]1CCN(C(=O)c2ccc3n2Cc2ccccc2N(C(=O)c2ccc(-c4cccc5ccccc45)cc2Cl)C3)C1` [Example 277, {10-[2-Chloro-4-(1-naphthyl)benzoyl]-10,11-dihydro-5H-pyrrolo[2,1-c][1,4]benzodiazepin-3-yl}[(3R)-3-(dimethylamino)pyrrolidinyl]methanone]: the “V2 % inhibition @ 100 nM” value is on record as 19%.

Turning to `Cc1ccccc1-c1ccc(C(=O)N2Cc3ccc(C(=O)N4CCC[C@H]4CN4CCCC4)n3Cc3ccccc32)cc1C` [Example 260, {10-[(2,2′-Dimethyl[1,1′-biphenyl]-4-yl)carbonyl]-10,11-dihydro-5H-pyrrolo[2,1-c][1,4]benzodiazepin-3-yl}[(2S)-2-(1-pyrrolidinylmethyl)pyrrolidinyl]methanone], the “V2 % inhibition @ 100 nM” value worked out at 20%.

As to `COc1cc(C(=O)N2Cc3ccc(C(=O)N4CCC[C@H]4CN4CCCC4)n3Cc3ccccc32)ccc1-c1ccccc1C` [Example 266, {10-[(2-Methoxy-2′-methyl[1,1′-biphenyl]-4-yl)carbonyl]-10,11-dihydro-5H-pyrrolo[2,1-c][1,4]benzodiazepin-3-yl}[(2S)-2-(1-pyrrolidinylmethyl)pyrrolidinyl]methanone], the “V2 % inhibition @ 100 nM” value is −17%.

In the case of `COc1cc(C(=O)N2Cc3ccc(C(=O)N4CC[C@@H](N(C)C)C4)n3Cc3ccccc32)ccc1-c1ccccc1C` [Example 281, [(3R)-3-(Dimethylamino)pyrrolidinyl]{10-[(2-methoxy-2′-methyl[1,1′-biphenyl]-4-yl)carbonyl]-10,11-dihydro-5H-pyrrolo[2,1-c][1,4]benzodiazepin-3-yl}methanone], the “V2 % inhibition @ 100 nM” value is listed as −9%.

As to `COc1cccc(-c2ccc(C(=O)N3Cc4ccc(C(=O)NCCN5CCCCC5)n4Cc4ccccc43)cc2C)c1` [Example 151, 10-[(3′-Methoxy-2-methyl[1,1′-biphenyl]-4-yl)carbonyl]-N-[2-(1-piperidinyl)ethyl]-10,11-dihydro-5H-pyrrolo[2,1-c][1,4]benzodiazepine-3-carboxamide], the inhibition at 0.1 µM was 6%.
